Measured values reported in publication PMC5485393, “Tailored chondroitin sulfate glycomimetics via a tunable multivalent scaffold for potentiating NGF/TrkA-induced neurogenesis” (Chemical Science, 2014).

Target: NGF (Homo sapiens, UniProt P01138)
Assay: SPR (Biacore T100) kinetic analysis of NGF binding to immobilized glycopeptides
Settings: for kon: read-out: association rate constant ka of NGF binding (SPR), SEM
Protocol: SPR technology was employed to facilitate quantitative, real-time kinetic analysis of glycopeptide–NGF binding. Biotinylated glycopeptides and CS-E polysaccharides were immobilized on streptavidin-coated surface at normalized levels by molecular weights, and the interactions with NGF were investigated as a function of NGF concentration.
Surface Plasmon Resonance (SPR): Affinity measurements were performed using a Biacore T100
system (GE Healthcare). The CM5 sensor chip was used for all measurements. The sensor was primed
with HBS-EP+ (10 mM HEPES pH 7.4, 150 mM NaCl, 3.4 mM EDTA, 0.005% P20, GE Healthcare)
buffer and was activated using amine coupling through 1:1 mixture of 0.4 M EDC and 0.1 M NHS.
Streptavidin solution (0.008mg/ml) in Acetate 5.0 buffer (GE Healthcare) was used and remaining
activated groups were blocked with 1 M solution of ethanolamine (pH 8.5). The final amount of
streptavidin covalently immobilized on the surface was typically 700 RU. Flow cell 1 (or 3) was used as a
reference to subtract nonspecific binding, drift, and the bulk refractive index, while flow cell 2 (or 4) was
further immobilized with either glycopeptides or CS-E polysaccharides. Either biotinylated glycopeptides
or CS-E polysaccharides (20 nM) were dissolved in HBS-EP+ buffer and were injected to flow cell 2 (or
4) at 30 µL/min until the baseline response increased by 104, 127, and 110 RU, for glycopeptide 5, 1, and
CS-E polysaccharides, respectively. For a given affinity measurement, these series of peptide solutions
were successively injected into the flow cells for 240 seconds of contact time and 800 seconds of
dissociation time using a flow rate of 50 μL/min at 25 °C. Flow cell was regenerated using 2.5 M MgCl2
at 30 μL/min. Association (ka) and dissociation (kd) rate constants were calculated with a 1:1 binding
model using Biacore evaluation software, and KD values were calculated from the ratio of kd to ka. Kinetic

Chain of NGF (P01138 122-241): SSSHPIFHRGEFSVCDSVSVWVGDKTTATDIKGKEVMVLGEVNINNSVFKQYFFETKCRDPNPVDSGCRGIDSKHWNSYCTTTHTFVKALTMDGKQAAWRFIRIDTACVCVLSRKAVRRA

Row | SMILES | Kd | kon
1 | COC(=O)[C@@H]1C[C@@H](n2cc(CO[C@@H]3O[C@H](COS(=O)(=O)O)[C@H](OS(=O)(=O)O)[C@H](O[C@@H]4O[C@H](C(=O)O)[C@@H](O)[C@H](O)[C@H]4O)[C@H]3NC(C)=O)nn2)CN1C(=O)[C@@H]1C[C@@H](n2cc(CO[C@@H]3O[C@H](COS(=O)(=O)O)[C@H](OS(=O)(=O)O)[C@H](O[C@@H]4O[C@H](C(=O)O)[C@@H](O)[C@H](O)[C@H]4O)[C@H]3NC(C)=O)nn2)CN1C(=O)[C@@H]1C[C@@H](n2cc(CO[C@@H]3O[C@H](COS(=O)(=O)O)[C@H](OS(=O)(=O)O)[C@H](O[C@@H]4O[C@H](C(=O)O)[C@@H](O)[C@H](O)[C@H]4O)[C@H]3NC(C)=O)nn2)CN1C(=O)[C@@H]1C[C@@H](n2cc(CO[C@@H]3O[C@H](COS(=O)(=O)O)[C@H](OS(=O)(=O)O)[C@H](O[C@@H]4O[C@H](C(=O)O)[C@@H](O)[C@H](O)[C@H]4O)[C@H]3NC(C)=O)nn2)CN1C(=O)[C@@H]1C[C@@H](n2cc(CO[C@@H]3O[C@H](COS(=O)(=O)O)[C@H](OS(=O)(=O)O)[C@H](O[C@@H]4O[C@H](C(=O)O)[C@@H](O)[C@H](O)[C@H]4O)[C@H]3NC(C)=O)nn2)CN1C(=O)[C@@H]1C[C@@H](n2cc(CO[C@@H]3O[C@H](COS(=O)(=O)O)[C@H](OS(=O)(=O)O)[C@H](O[C@@H]4O[C@H](C(=O)O)[C@@H](O)[C@H](O)[C@H]4O)[C@H]3NC(C)=O)nn2)CN1C(=O)[C@@H]1C[C@@H](n2cc(CO[C@@H]3O[C@H](COS(=O)(=O)O)[C@H](OS(=O)(=O)O)[C@H](O[C@@H]4O[C@H](C(=O)O)[C@@H](O)[C@H](O)[C@H]4O)[C@H]3NC(C)=O)nn2)CN1C(=O)[C@@H]1C[C@@H](n2cc(CO[C@@H]3O[C@H](COS(=O)(=O)O)[C@H](OS(=O)(=O)O)[C@H](O[C@@H]4O[C@H](C(=O)O)[C@@H](O)[C@H](O)[C@H]4O)[C@H]3NC(C)=O)nn2)CN1C(=O)[C@@H]1C[C@@H](n2cc(CO[C@@H]3O[C@H](COS(=O)(=O)O)[C@H](OS(=O)(=O)O)[C@H](O[C@@H]4O[C@H](C(=O)O)[C@@H](O)[C@H](O)[C@H]4O)[C@H]3NC(C)=O)nn2)CN1C(=O)[C@@H]1C[C@@H](n2cc(CO[C@@H]3O[C@H](COS(=O)(=O)O)[C@H](OS(=O)(=O)O)[C@H](O[C@@H]4O[C@H](C(=O)O)[C@@H](O)[C@H](O)[C@H]4O)[C@H]3NC(C)=O)nn2)CN1C(=O)[C@@H]1C[C@@H](n2cc(CO[C@@H]3O[C@H](COS(=O)(=O)O)[C@H](OS(=O)(=O)O)[C@H](O[C@@H]4O[C@H](C(=O)O)[C@@H](O)[C@H](O)[C@H]4O)[C@H]3NC(C)=O)nn2)CN1C(=O)[C@@H]1C[C@@H](n2cc(CO[C@@H]3O[C@H](COS(=O)(=O)O)[C@H](OS(=O)(=O)O)[C@H](O[C@@H]4O[C@H](C(=O)O)[C@@H](O)[C@H](O)[C@H]4O)[C@H]3NC(C)=O)nn2)CN1C(=O)CCOCCOCCOCCOCCOCCOCCOCCOCCOCCOCCOCCOCCNC(=O)CCCC[C@@H]1SC[C@@H]2NC(=O)N[C@@H]21 [compound 1] | 3570 nM | 346 M⁻¹ s⁻¹
2 | COC(=O)[C@@H]1C[C@@H](n2cc(CO[C@@H]3O[C@H](COS(=O)(=O)O)[C@H](OS(=O)(=O)O)[C@H](O[C@@H]4O[C@H](C(=O)O)[C@@H](O)[C@H](O)[C@H]4O)[C@H]3NC(C)=O)nn2)CN1C(=O)[C@@H]1CCCN1C(=O)[C@@H]1CCCN1C(=O)[C@@H]1C[C@@H](n2cc(CO[C@@H]3O[C@H](COS(=O)(=O)O)[C@H](OS(=O)(=O)O)[C@H](O[C@@H]4O[C@H](C(=O)O)[C@@H](O)[C@H](O)[C@H]4O)[C@H]3NC(C)=O)nn2)CN1C(=O)[C@@H]1CCCN1C(=O)[C@@H]1CCCN1C(=O)[C@@H]1C[C@@H](n2cc(CO[C@@H]3O[C@H](COS(=O)(=O)O)[C@H](OS(=O)(=O)O)[C@H](O[C@@H]4O[C@H](C(=O)O)[C@@H](O)[C@H](O)[C@H]4O)[C@H]3NC(C)=O)nn2)CN1C(=O)[C@@H]1CCCN1C(=O)[C@@H]1CCCN1C(=O)[C@@H]1C[C@@H](n2cc(CO[C@@H]3O[C@H](COS(=O)(=O)O)[C@H](OS(=O)(=O)O)[C@H](O[C@@H]4O[C@H](C(=O)O)[C@@H](O)[C@H](O)[C@H]4O)[C@H]3NC(C)=O)nn2)CN1C(=O)[C@@H]1CCCN1C(=O)[C@@H]1CCCN1C(=O)[C@@H]1C[C@@H](n2cc(CO[C@@H]3O[C@H](COS(=O)(=O)O)[C@H](OS(=O)(=O)O)[C@H](O[C@@H]4O[C@H](C(=O)O)[C@@H](O)[C@H](O)[C@H]4O)[C@H]3NC(C)=O)nn2)CN1C(=O)[C@@H]1CCCN1C(=O)[C@@H]1CCCN1C(=O)[C@@H]1C[C@@H](n2cc(CO[C@@H]3O[C@H](COS(=O)(=O)O)[C@H](OS(=O)(=O)O)[C@H](O[C@@H]4O[C@H](C(=O)O)[C@@H](O)[C@H](O)[C@H]4O)[C@H]3NC(C)=O)nn2)CN1C(=O)[C@@H]1CCCN1C(=O)[C@@H]1CCCN1C(=O)[C@@H]1C[C@@H](n2cc(CO[C@@H]3O[C@H](COS(=O)(=O)O)[C@H](OS(=O)(=O)O)[C@H](O[C@@H]4O[C@H](C(=O)O)[C@@H](O)[C@H](O)[C@H]4O)[C@H]3NC(C)=O)nn2)CN1C(=O)[C@@H]1CCCN1C(=O)[C@@H]1CCCN1C(=O)[C@@H]1C[C@@H](n2cc(CO[C@@H]3O[C@H](COS(=O)(=O)O)[C@H](OS(=O)(=O)O)[C@H](O[C@@H]4O[C@H](C(=O)O)[C@@H](O)[C@H](O)[C@H]4O)[C@H]3NC(C)=O)nn2)CN1C(=O)[C@@H]1CCCN1C(=O)[C@@H]1CCCN1C(=O)[C@@H]1C[C@@H](n2cc(CO[C@@H]3O[C@H](COS(=O)(=O)O)[C@H](OS(=O)(=O)O)[C@H](O[C@@H]4O[C@H](C(=O)O)[C@@H](O)[C@H](O)[C@H]4O)[C@H]3NC(C)=O)nn2)CN1C(=O)[C@@H]1CCCN1C(=O)[C@@H]1CCCN1C(=O)[C@@H]1C[C@@H](n2cc(CO[C@@H]3O[C@H](COS(=O)(=O)O)[C@H](OS(=O)(=O)O)[C@H](O[C@@H]4O[C@H](C(=O)O)[C@@H](O)[C@H](O)[C@H]4O)[C@H]3NC(C)=O)nn2)CN1C(=O)[C@@H]1CCCN1C(=O)[C@@H]1CCCN1C(=O)[C@@H]1C[C@@H](n2cc(CO[C@@H]3O[C@H](COS(=O)(=O)O)[C@H](OS(=O)(=O)O)[C@H](O[C@@H]4O[C@H](C(=O)O)[C@@H](O)[C@H](O)[C@H]4O)[C@H]3NC(C)=O)nn2)CN1C(=O)[C@@H]1CCCN1C(=O)[C@@H]1CCCN1C(=O)[C@@H]1C[C@@H](n2cc(CO[C@@H]3O[C@H](COS(=O)(=O)O)[C@H](OS(=O)(=O)O)[C@H](O[C@@H]4O[C@H](C(=O)O)[C@@H](O)[C@H](O)[C@H]4O)[C@H]3NC(C)=O)nn2)CN1C(=O)[C@@H]1CCCN1C(=O)[C@@H]1CCCN1C(=O)CCOCCOCCOCCOCCOCCOCCOCCOCCOCCOCCOCCOCCNC(=O)CCCC[C@@H]1SC[C@@H]2NC(=O)N[C@@H]21 [compound 5] | 146 nM | 13400 M⁻¹ s⁻¹
